Test results: patent US20230312587A1, “PTERIDINONE COMPOUNDS AND USES THEREOF” (Vertex Pharmaceutical Incorporated, priority 2018, published 2023)

Test system: β-catenin-TCF-mediated reporter transcription activity in Colo 205 cells
Test: Colo 205 reporter assay (TCF/LEF luciferase)
Format: cell-based
Settings: Colo 205 TCF/LEF luciferase reporter, five hours after addition of compound; read-out: TCF reporter Colo205 IC50
In short: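 Luciferase signal from a TCF/LEF-driven reporter, stably integrated in Colo 205 colon cancer cells, was measured 5 h after compound addition.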

Row | IC50 | SMILES
1 | < 300 nM | Cc1nc(N[C@H]2C[C@H](Oc3ccc(F)cc3F)C2)nc2c1NC(=O)[C@H](C)N2C (relative stereo) [Compound 295, (7S)-4,7,8-trimethyl-2-((trans-3-(2,4-drifluorophenoxy)cyclobutyl)amino)-7,8-dihydropteridin-6(5H)-one]
2 | 1000 to 5000 nM | COCC1(C)C(=O)Nc2c(C)nc(NC3CN(C(=O)c4cc(F)c(F)c(F)c4)C3)nc2N1C (stereo not shown) [Compound 722, 7-(methoxymethyl)-4,7,8-trimethyl-2-((1-(3,4,5-trifluorobenzoyl)azetidin-3-yl)amino)-7,8-dihydropteridin-6(5H)-one]

Same assay, conditions: Homo sapiens, COLO 205, 5 h, Colo 205 TCF/LEF luciferase reporter, five hours after addition of compound; read-out: TCF reporter Colo205 IC50

Row | SMILES | IC50
3 | Cc1nc(N[C@H]2CCc3c2cnn3Cc2ccc(C(F)(F)F)nc2)nc2c1NC(=O)[C@H](C(C)C)N2C [Compound 519, (S)-7-isopropyl-4,8-dimethyl-2-(((S)-1-((6-(trifluoromethyl)pyridin-3-yl)methyl)-1,4,5,6-tetrahydrocyclopenta[c]pyrazol-4-yl)amino)-7,8-dihydropteridin-6(5H)-one] | 1000 to 5000 nM
4 | Cc1nc(NC2CN(C(=O)C3CCCCO3)C2)nc2c1NC(=O)[C@H](C(C)C)N2C (stereo partly drawn) [Compound 611, (7S)-7-isopropyl-4,8-dimethyl-2-((1-(tetrahydro-2H-pyran-2-carbonyl)azetidin-3-yl)amino)-7,8-dihydropteridin-6(5H)-one] | ≥ 5000 nM
5 | O=C1Nc2cnc(NCc3cnn(CCc4ccc(F)cc4)c3)nc2N[C@H]1CCO [Compound 13, (7S)-2-(((1-(4-fluorophenethyl)-1H-pyrazol-4-yl)methyl)amino)-7-(2-hydroxyethyl)-7,8-dihydropteridin-6(5H)-one] | ≥ 5000 nM
6 | Cc1nc(NCc2cnn([C@@H](C)Cc3ccccc3)c2)nc2c1NC(=O)[C@H](C)N2C [Compound 102, (7S)-4,7,8-trimethyl-2-(((1-((S)-1-phenylpropan-2-yl)-1H-pyrazol-4-yl)methyl)amino)-7,8-dihydropteridin-6(5H)-one] | 1000 to 5000 nM
7 | COc1cc(O[C@H]2C[C@H](Nc3nc(C)c4c(n3)N(C)[C@@H](C)C(=O)N4C)C2)ccc1F [Compound 373, (7S)-2-((trans-3-(4-fluoro-3-methoxyphenoxy)cyclobutyl)amino)-4,5,7,8-tetramethyl-7,8-dihydropteridin-6(5H)-one] | 300 to 1000 nM
8 | Cc1nc(NC2CN(C(=O)C34CC(C(F)(F)F)(C3)C4)C2)nc2c1NC(=O)[C@H](C(C)C)N2C [Compound 699, (S)-7-isopropyl-4,8-dimethyl-2-((1-(3-(trifluoromethyl)bicyclo[1.1.1]pentane-1-carbonyl)azetidin-3-yl)amino)-7,8-dihydropteridin-6(5H)-one] | 1000 to 5000 nM
9 | Cc1nc(NCc2cnn(Cc3ccc(C(F)(F)F)nc3)c2)nc2c1NC(=O)[C@H](CO)N2C [Compound 604, (S)-7-(hydroxymethyl)-4,8-dimethyl-2-(((1-((6-(trifluoromethyl)pyridin-3-yl)methyl)-1H-pyrazol-4-yl)methyl)amino)-7,8-dihydropteridin-6(5H)-one] | 1000 to 5000 nM
10 | Cc1nc(N[C@H]2CCN(Cc3ccccc3)C2)nc2c1NC(=O)[C@H](C)N2C [Compound 371, (7S)-2-(((S)-1-benzylpyrrolidin-3-yl)amino)-4,7,8-trimethyl-7,8-dihydropteridin-6(5H)-one] | ≥ 5000 nM
11 | Cc1nc(N[C@H]2C[C@@H](NC(=O)c3cc(F)c(F)c(F)c3)C2)nc2c1NC(=O)[C@H](C)N2C [Compound 475, 3,4,5-trifluoro-N-(cis-3-(((S)-4,7,8-trimethyl-6-oxo-5,6,7,8-tetrahydropteridin-2-yl)amino)cyclobutyl)benzamide] | 1000 to 5000 nM
12 | Cc1nc(NC2CN(C(=O)c3ncccn3)C2)nc2c1NC(=O)[C@H](C(C)C)N2C [Compound 640, (S)-7-isopropyl-4,8-dimethyl-2-((1-(pyrimidine-2-carbonyl)azetidin-3-yl)amino)-7,8-dihydropteridin-6(5H)-one] | ≥ 5000 nM
13 | Cc1nc(NC2CN(C(=O)Cc3cccc(F)c3F)C2)nc2c1NC(=O)[C@H](C(C)C)N2C [Compound 632, (S)-2-((1-(2-(2,3-difluorophenyl)acetyl)azetidin-3-yl)amino)-7-isopropyl-4,8-dimethyl-7,8-dihydropteridin-6(5H)-one] | 300 to 1000 nM
14 | Cc1nc(NC2CN(C(=O)[C@H](C)c3ccccc3)C2)nc2c1NC(=O)[C@H](C(C)C)N2C [Compound 627, (S)-7-isopropyl-4,8-dimethyl-2-((1-((R)-2-phenylpropanoyl)azetidin-3-yl)amino)-7,8-dihydropteridin-6(5H)-one] | 1000 to 5000 nM
15 | CC[C@H]1C(=O)Nc2c(C)nc(N[C@H]3C[C@@H](Cn4nccc4C(F)(F)F)C3)nc2N1C [Compound 593, (S)-7-ethyl-4,8-dimethyl-2-((cis-3-((5-(trifluoromethyl)-1H-pyrazol-1-yl)methyl)cyclobutyl)amino)-7,8-dihydropteridin-6(5H)-one] | < 300 nM
16 | Cc1nc(NCc2ccc(OCc3ccc(F)cc3)nc2)nc2c1NC(=O)[C@H](C)N2C [Compound 57, (7S)-2-(((6-((4-fluorobenzyl)oxy)pyridin-3-yl)methyl)amino)-4,7,8-trimethyl-7,8-dihydropteridin-6(5H)-one] | < 300 nM
17 | Cc1nc(N[C@H]2C[C@@H](COc3ccc(C#N)nc3)C2)nc2c1NC(=O)[C@H](C(C)C)N2C [Compound 572, 5-((cis-3-(((S)-7-isopropyl-4,8-dimethyl-6-oxo-5,6,7,8-tetrahydropteridin-2-yl)amino)cyclobutyl)methoxy)picolinonitrile] | < 300 nM
18 | COc1cc(Cn2cc(CNc3nc(C)c4c(n3)N(C)[C@@H](C)C(=O)N4)cn2)ccc1F [Compound 75, (7S)-2-(((1-(4-fluoro-3-methoxybenzyl)-1H-pyrazol-4-yl)methyl)amino)-4,7,8-trimethyl-7,8-dihydropteridin-6(5H)-one] | < 300 nM
19 | Cc1nc(NCc2cnn(Cc3ccc(F)cc3)c2C)nc2c1NC(=O)[C@H](C)N2C [Compound 74, (7S)-2-(((1-(4-fluorobenzyl)-5-methyl-1H-pyrazol-4-yl)methyl)amino)-4,7,8-trimethyl-7,8-dihydropteridin-6(5H)-one] | 300 to 1000 nM

Now from value to compound:

Row | IC50 | SMILES
20 | < 300 nM | Cc1nc(NCc2cnn(Cc3ccnc(Cl)c3)c2)nc2c1NC(=O)[C@H](C1CC1)N2C [Compound 608, (S)-2-(((1-((2-chloropyridin-4-yl)methyl)-1H-pyrazol-4-yl)methyl)amino)-7-cyclopropyl-4,8-dimethyl-7,8-dihydropteridin-6(5H)-one]
21 | < 300 nM | Cc1nc(NCc2cnn(CCCc3ccc(F)cc3)c2)nc2c1NC(=O)[C@H](C)N2C [Compound 104, (7S)-2-(((1-(3-(4-fluorophenyl)propyl)-1H-pyrazol-4-yl)methyl)amino)-4,7,8-trimethyl-7,8-dihydropteridin-6(5H)-one]
22 | < 300 nM | CCn1nc(C(F)(F)F)cc1Cn1cc(CNc2nc(C)c3c(n2)N(C)[C@@H](C)C(=O)N3)cn1 [Compound 189, (7S)-2-(((1-((1-ethyl-3-(trifluoromethyl)-1H-pyrazol-5-yl)methyl)-1H-pyrazol-4-yl)methyl)amino)-4,7,8-trimethyl-7,8-dihydropteridin-6(5H)-one]
23 | < 300 nM | Cc1nc(N[C@H]2C[C@H](Oc3ccc(OC(F)(F)F)c(F)c3)C2)nc2c1N(C)C(=O)[C@H](C)N2C [Compound 360, (7S)-2-((trans 3-(3-fluoro-4-(trifluoromethoxy)phenoxy)cyclobutyl)amino)-4,5,7,8-tetramethyl-7,8-dihydropteridin-6(5H)-one]
24 | < 300 nM | Cc1nc(N[C@H]2C[C@@H](Sc3cc(F)c(F)c(F)c3)C2)nc2c1N(C)C(=O)[C@H](C)N2C [Compound 331, (7S)-4,5,7,8-tetramethyl-2-((cis-3-((3,4,5-trifluorophenyl)thio)cyclobutyl)amino)-7,8-dihydropteridin-6(5H)-one]
25 | < 300 nM | Cc1nc(NCc2cnn(Cc3ccc(C4CC4)nc3)c2)nc2c1NC(=O)[C@H](C1CC1)N2C [Compound 441, (7S)-7-cyclopropyl-2-(((1-((6-cyclopropylpyridin-3-yl)methyl)-1H-pyrazol-4-yl)methyl)amino)-4,8-dimethyl-7,8-dihydropteridin-6(5H)-one]
26 | < 300 nM | CO[C@H](C)[C@H]1C(=O)Nc2c(C)nc(N[C@H]3C[C@@H](Nc4cnc(C(F)(F)F)cn4)C3)nc2N1C [Compound 647, (S)-7-((R)-1-methoxyethyl)-4,8-dimethyl-2-((cis-3-((5-(trifluoromethyl)pyrazin-2-yl)amino)cyclobutyl)amino)-7,8-dihydropteridin-6(5H)-one]
27 | < 300 nM | Cc1nc(NCc2cnn(Cc3ccccc3C(C)C)c2)nc2c1NC(=O)[C@H](C)N2C [Compound 78, (7S)-2-(((1-(2-isopropylbenzyl)-1H-pyrazol-4-yl)methyl)amino)-4,7,8-trimethyl-7,8-dihydropteridin-6(5H)-one]
28 | < 300 nM | CCN1C(=O)C2(CC2)N(CC)c2nc(NCc3cnn(Cc4ccc(F)cc4)c3)ncc21 [Compound 232, 5′,8′-diethyl-2′-(((1-(4-fluorobenzyl)-1H-pyrazol-4-yl)methyl)amino)-5′,8′-dihydro-6′H-spiro[cyclopropane-1,7′-pteridin]-6′-one]
29 | < 300 nM | Cc1nc(NCc2cnn(Cc3ccc(OC(F)(F)F)nc3)c2)nc2c1NC(=O)[C@H](C(C)C)N2C [Compound 510, (S)-7-isopropyl-4,8-dimethyl-2-(((1-((6-(trifluoromethoxy)pyridin-3-yl)methyl)-1H-pyrazol-4-yl)methyl)amino)-7,8-dihydropteridin-6(5H)-one]

Same assay, conditions: Homo sapiens, COLO 205, 5 h, R-isomer at C2 (corresponding to C2 S-isomer); Colo 205 TCF/LEF luciferase reporter, 5 h; read-out: TCF reporter Colo205 IC50

Row | IC50 | SMILES
30 | 1000 to 5000 nM | Cc1nc(N[C@H]2C[C@H](Oc3cc(F)c(F)c(F)c3)C2)nc2c1NC(=O)[C@@H](CO)N2C [Compound I-1650]
31 | < 300 nM | CC[C@@H]1C(=O)N(C)c2cnc(NCc3cnn(Cc4cc(F)c(F)c(F)c4)c3)nc2N1C(C)C [Compound I-1465]
